According to patent publication US5859007A, “CCK or gastrin modulating benzo [b][1,4] diazepines derivatives” (Glaxo Wellcome Inc., priority 1994, dated 1999):

Tested on: isolated guinea pig gallbladder
Assay: Functional activity in isolated guinea pig gallbladder preparation
Assay type: cell-based
Settings: expressed as % CCK-induced maximal response; for activation at 1 µM / activation at 30 µM: Cavia porcellus; for activation at 1 µM / %Contraction (1 × 10^-6 M): 1 × 10^-6 M test compound; for activation at 1 µM: read-out: %Contraction (1 × 10^-6 M); for activation at 30 µM / % Contraction (3 × 10^-5 M): 3 × 10^-5 M test compound; for activation at 30 µM: read-out: % Contraction (3 × 10^-5 M)
Method: 3. GUINEA PIG GALL BLADDER ASSAY
Gallbladders are removed from guinea pigs sacrificed by cervical dislocation. The isolated gallbladders are cleaned of adherent connective tissue and cut into two rings from each animal (2-4 mm in length). The rings are subsequently suspended in organ chambers containing a physiological salt solution (118.4 mM NaCl, 4.7 mM KCl, 1.2 mM MgSO4, 2.5 mM CaCl2, 1.2 mM KH2 […], 25 mM NaHCO3, 11.1 mM dextrose). The bathing solution is maintained at 37° C. and aerated with 95% O2 /5% CO2. Tissues are connected via gold chains and stainless steel mounting wires to isometric force displacement transducers (Grass, Model FT03 D). Responses are then recorded on a polygraph (Grass, Model 7E).
Rings are gradually stretched (over a 120 min. period) to a basal resting tension of 1 gm which is maintained throughout the experiment. During the basal tension adjustment period, the rings are exposed to acetylcholine (10^-6 M) four times to verify tissue contractility. The tissues are then exposed to a submaximal dose of sulfated CCK-8 (Sigma, 3×10^-9 M). After obtaining a stable response, the tissues are washed out 3 times rapidly and every 5 to 10 minutes for 1 hour to reestablish a stable baseline.
Compounds are dissolved in dimethylsulfoxide ([…]) followed by a concentration-response curve to sulfated CCK-8 (10^-10 to 10^-6 M) in the presence of the highest dose of the test compound. As a final test, ACH (10 mM) is added to induce maximal contraction. A minimum of three determinations of activity are made for each test compound.

Row | SMILES | activation at 1 µM [%] | activation at 30 µM [%] | other results
1 | COc1ccc(N(C(=O)CN2C(=O)C(C)(Cc3n[nH]c4ccccc34)C(=O)N(c3cccnc3)c3ccccc32)C(C)C)cc1 (single isomer, unassigned) [Example 75, 2-[3-(1H-indazol-3-ylmethyl)-3-methyl-2,4-dioxo-5-pyridin-3-yl-2,3,4,5-tetrahydro-benzo[b][1,4]diazepin-1-yl]-N-isopropyl-N-(4-methoxy-phenyl)-acetamide] | 102 | 82 | 
2 | COc1ccc(N(C(=O)CN2C(=O)C(Cc3n[nH]c4ccccc34)C(=O)N(c3cccnc3)c3ccccc32)C(C)C)cc1 (single isomer, unassigned; (+)) [Example 72, (+)-2-[3-(1H-Indazol-3-ylmethyl)-2,4-dioxo-5-pyridin-3-yl-2,3,4,5-tetrahydrobenzo[b][1,4]diazepin-1-yl]-N-isopropyl-N-(4-methoxyphenyl) acetamide] |  |  | %Contraction (1 × 10^-6 M): 104%; % Contraction (3 × 10^-5 M): 93%
3 | COc1ccc(N(C(=O)CN2C(=O)C(Cc3n[nH]c4ccccc34)C(=O)N(c3cccnc3)c3ccccc32)C(C)C)cc1 (single isomer, unassigned; (-)) [Example 73, (-)-2-[3-(1H-Indazol-3-ylmethyl)-2,4-dioxo-5-pyridin-3-yl-2,3,4,5-tetrahydrobenzo[b][1,4]diazepin-1-yl]-N-isopropyl-N-(4-methoxyphenyl) acetamide] |  |  | %Contraction (1 × 10^-6 M): 58%; % Contraction (3 × 10^-5 M): 64%
4 | CCOC(=O)c1cccc(NC(=O)CC2C(=O)N(CC(=O)N(c3ccccc3)C(C)C)c3ccccc3N(c3ccccc3)C2=O)c1 (stereo not shown) [Example 1] |  | 64 | 
5 | CC(C)N(C(=O)CN1C(=O)C(CC(=O)Nc2cccc(C(=O)O)c2)C(=O)N(c2ccccc2)c2ccccc21)c1ccccc1 (stereo not shown) [Example 2] |  | 94 | 
6 | CC(C)N(C(=O)CN1C(=O)C(C)(CC(=O)Nc2cccc(C(=O)O)c2)C(=O)N(c2ccccc2)c2ccccc21)c1ccccc1 (stereo not shown) [Example 3, 2-[2,4-Dioxo-5-phenyl-3-methyl-3-(3-carboxyphenyl)carbamoylmethyl-2,3,4,5-tetrahydro-benzo[b][1,4]diazepin-1-yl]-N-isopropyl-N-phenyl acetamide] | 75 | 102 | 
7 | CC(C)N(C(=O)CN1C(=O)C(C)(CC(=O)Nc2ccccc2)C(=O)N(c2ccccc2)c2ccccc21)c1ccccc1 (stereo not shown) [Example 4, 2-(2,4-Dioxo-5-phenyl-3-methyl-3-phenylcarbamoylmethyl-2,3,4,5-tetrahydro-benzo[b][1,4]diazepin-1-yl)-N-isopropyl-N-phenyl acetamide] | 80 | 79 | 
8 | CC(C)N(C(=O)CN1C(=O)C(C)(CC(=O)N(C)c2ccccc2)C(=O)N(c2ccccc2)c2ccccc21)c1ccccc1 (stereo not shown) [Example 5, 2-(2,4-Dioxo-5-phenyl-3-methyl-N-methyl-3-phenylcarbamoylmethyl-2,3,4,5-tetrahydro-benzo[b][1,4]diazepin-1-yl)-N-isopropyl-N-phenyl acetamide] | 9 |  | 
9 | CC(C)N(C(=O)CN1C(=O)C(C)(CCNc2ccccc2)C(=O)N(c2ccccc2)c2ccccc21)c1ccccc1 (stereo not shown) [Example 6, N-Isopropyl-2-[3-methyl-2,4-dioxo-5-phenyl-3-(2-phenylaminoethyl)-2,3,4,5-tetrahydro-benzo[b][1,4]diazepin-1-yl]-N-phenyl acetamide] | 7 |  | 
10 | CC(C)N(C(=O)CN1C(=O)C(C)(CC(=O)c2ccccc2)C(=O)N(c2ccccc2)c2ccccc21)c1ccccc1 (stereo not shown) [Example 7, N-Isopropyl-2-[3-methyl-2,4-dioxo-3-(2-phenyl-2-oxoethyl)-5-phenyl-2,3,4,5-tetrahydro-benzo[b][1,4]diazepin-1-yl]-N-phenyl acetamide] |  |  | %Contraction (1 × 10^-6 M): 15%
11 | CC(C)N(C(=O)CN1C(=O)C(C)(C(C)C(=O)c2ccccc2)C(=O)N(c2ccccc2)c2ccccc21)c1ccccc1 (stereo not shown) [Example 8, N-Isopropyl-2-[3-methyl-2,4-dioxo-3-(1-phenyl-1-oxoprop-2-yl)-5-phenyl-2,3,4,5-tetrahydro-benzo[b][1,4]diazepin-1-yl]-N-phenyl acetamide] |  |  | %Contraction (1 × 10^-6 M): 16%
12 | CC(C)N(C(=O)CN1C(=O)C(C)(CC(=O)Nc2ccccc2N)C(=O)N(c2ccccc2)c2ccccc21)c1ccccc1 (stereo not shown) [Example 9, 2-[3-(2-Amino-phenylcarbamoylmethyl)-3-methyl-2,4-dioxo-5-phenyl-2,3,4,5-tetrahydro-benzo[b][1,4]diazepin-1-yl]-N-isopropyl-N-phenyl acetamide] | 31 |  | 
13 | CC(C)N(C(=O)CN1C(=O)C(C)(Cc2noc(-c3ccccc3)n2)C(=O)N(c2ccccc2)c2ccccc21)c1ccccc1 (stereo not shown) [Example 10, N-Isopropyl-2-[3-methyl-2,4-dioxo-5-phenyl-3-(5-phenyl-[1,2,4]oxadiazol-3-ylmethyl)-2,3,4,5-tetrahydro-benzo[b][1,4]diazepin-1-yl]-N-phenyl acetamide] | 7 |  | 
14 | CC(C)N(C(=O)CN1C(=O)C(C)(CC=Cc2ccccc2)C(=O)N(c2ccccc2)c2ccccc21)c1ccccc1 (stereo not shown) [Example 11, N-Isopropyl-2-[3-methyl-2,4-dioxo-5-phenyl-3-(3-phenyl-allyl)-2,3,4,5-tetrahydro-benzo[b][1,4]diazepin-1-yl]-N-phenyl acetamide] | 10 |  | 
15 | CC(C)N(C(=O)CN1C(=O)C(C)(CCCc2ccccc2)C(=O)N(c2ccccc2)c2ccccc21)c1ccccc1 (stereo not shown) [Example 12, N-Isopropyl-2-[3-methyl-2,4-dioxo-5-phenyl-3-(3-phenyl-propyl)-2,3,4,5-tetrahydro-benzo[b][1,4]diazepin-1-yl]-N-phenyl acetamide] | 19 |  | 
16 | CC(C)N(C(=O)CN1C(=O)C(C)(CC(N)=O)C(=O)N(c2ccccc2)c2ccccc21)c1ccccc1 (stereo not shown) [Example 13, 2-[1-(Isopropyl-phenyl-carbamoylmethyl)-3-methyl-2,4-dioxo-5-phenyl-2,3,4,5-tetrahydro-1H-benzo[b][1,4]diazepine-3-yl]acetamide] | 6 |  | 
17 | COc1ccc(N(C(=O)CN2C(=O)C(C)(CC(=O)Nc3ccccc3)C(=O)N(c3ccccc3)c3ccccc32)C(C)C)cc1 (stereo not shown) [Example 14, N-Isopropyl-N-(4-methoxy-phenyl)-2-(3-methyl-2,4-dioxo-5-phenyl-3-phenylcarbamoylmethyl-2,3,4,5-tetrahydro-benzo[b][1,4]diazepin-1-yl) acetamide] |  | 64 | 
18 | CC(C)N(C(=O)CN1C(=O)C(C)(CCCC(=O)Nc2ccccc2)C(=O)N(c2ccccc2)c2ccccc21)c1ccccc1 (stereo not shown) [Example 15, N-Isopropyl-N-phenyl-2-(3-methyl-2,4-dioxo-5-phenyl-3-phenylcarbamoylpropyl-2,3,4,5-tetrahydro-benzo[b][1,4]diazepin-1-yl) acetamide] | 54 |  | 
19 | CCC1(CC(=O)Nc2ccccc2)C(=O)N(CC(=O)N(c2ccccc2)C(C)C)c2ccccc2N(c2ccccc2)C1=O (stereo not shown) [Example 16, 2-(3-Ethyl-2,4-dioxo-5-phenyl-3-phenylcarbamoylmethyl-2,3,4,5-tetrahydro-benzo[b][1,4]diazepin-1-yl)-N-isopropyl-N-phenyl-acetamide] |  | 54 | 
20 | COc1ccc(N(C(=O)CN2C(=O)C(CC(=O)Nc3ccccc3)C(=O)N(c3ccccc3)c3ccccc32)C(C)C)cc1 (stereo not shown) [Example 17, 2-(2,4-dioxo-5-phenyl-3-phenylcarbamoylmethyl-2,3,4,5-tetrahydro-benzo[b][1,4]diazepin-1-yl)-N-isopropyl-N-(4-methoxy-phenyl)-acetamide] | 48 | 55 | 
21 | CC(C)N(C(=O)CN1C(=O)C(C)(Cc2cc3ccccc3[nH]2)C(=O)N(c2ccccc2)c2ccccc21)c1ccccc1 (stereo not shown) [Example 18, 2-[3-(1H-indol-2-ylmethyl)-3-methyl-2,4-dioxo-5-phenyl-2,3,4,5-tetrahydro-benzo[b][1,4]diazepin-1-yl]-N-isopropyl-N-phenyl acetamide] |  | 3 | 
22 | CC(C)N(C(=O)CN1C(=O)C(C)(Cc2c[nH]c3ccccc23)C(=O)N(c2ccccc2)c2ccccc21)c1ccccc1 (stereo not shown) [Example 19, 2-[3-(1H-indol-3-ylmethyl)-3-methyl-2,4-dioxo-5-phenyl-2,3,4,5-tetrahydro-benzo[b][1,4]diazepin-1-yl]-N-isopropyl-N-phenyl acetamide] |  | 76 | 
23 | COc1ccc(N(C(=O)CN2C(=O)C(Cc3cc4ccccc4[nH]3)(OC)C(=O)N(c3ccccc3)c3ccccc32)C(C)C)cc1 (stereo not shown) [Example 20, 2-[3-(1H-indol-2-ylmethyl)-3-methoxy-2,4-dioxo-5-phenyl-2,3,4,5-tetrahydro-benzo[b][1,4]diazepin-1-yl]-N-isopropyl-N-(4-methoxyphenyl) acetamide] |  | 66 | 
24 | COc1ccc(N(C(=O)CN2C(=O)C(CC(=O)Nc3ccccc3)(OC)C(=O)N(c3ccccc3)c3ccccc32)C(C)C)cc1 (stereo not shown) [Example 21, N-Isopropyl-2-(3-methoxy-2,4-dioxo-5-phenyl-3-phenylcarbamoylmethyl-2,3,4,5-tetrahydro-benzo[b][1,4]diazepin-1-yl)-N-(4-methoxy-phenyl)-acetamide] | 80 | 90 | 
